Data set [1] relates to blood pressure, heart rate, motor activity. As to the kind of experiment: Radio-telemetry blood pressure, heart rate, motor activity in normotensive rats, 7 days. The data set is classed as in vivo, normotensive Wistar rats (Crl:COBS(WI)BR). The conditions noted are these: 10 mg/kg po. The procedure: Male Crl:COBS(WI)BR rats of 15 weeks old were used. Twenty-four rats were chronically implanted with telemetry implants (TA11PA-C40, Data Sciences, Inc., St. Paul, Minn.) for measurement of arterial blood pressure, heart rate and motor activity. The rat was anesthetized with pentobarbital sodium (60 mg/kg, ip) and its abdomen shaved. Under aseptic conditions, an incision was made on midline. The abdominal aorta was exposed, and cannulated with the catheter of a telemetry transmitter unit. After the transmitter was sutured to the abdominal musculature, the skin was closed. Each rat was allowed to recover for at least 2 weeks before being subjected to drug administration. Three days prior to the start of the experiment, the rats were randomly divided into 4 treatment groups: Vehicle (p.o.), Hydralazine (10 mg/kg, p.o.), nepicastat (30 mg/kg, p.o.), nepicastat (100 mg/kg, p.o.).
Systolic blood pressure (SBP), diastolic blood pressure (DBP), mean blood pressure (MBP), heart rate (HR), and motor activity (MA) were monitored. After the pre-dose values for these parameters were established, respective groups of rats received a 7 day daily treatment of vehicle, nepicastat or hydralazine.
Both nepicastat and hydralazine were prepared in water with traces of Tween 80. All doses were given orally to the rat in 10 ml/kg and were expressed as free base equivalents.
A computerized data collection system was used to continuously collect data on SBP, DBP, MBP, HR, and MA. Data on each rat were collected every 5 min. for 10 sec. These were then averaged hourly and standard errors of the mean (SE) calculated. In this report, only data on MBP, HR and MA were presented. […] Body weights were recorded daily.

A further data set relates to parkinsonian symptoms. As to the kind of experiment: Parkinsonian clinical rating scale (CRS) in MPTP-lesioned monkeys. The data set is classed as in vivo, squirrel monkeys (Saimiri sciureus). As for the experimental part:
A total of 24 squirrel monkeys (Saimiri sciureus), fourteen females and ten males were used in this study. The twenty-four animals were randomly assigned to one of four treatment groups, with 6 animals per group. The groups consisted of the following (1) group A: placebo (2) group B: 1 mg/kg/day; (3) group C: 4 mg/kg/day; and (4) group D: 10 mg/kg/day. In Group B, one animal died acutely following MPTP-lesioning, and was not replaced.
Animals were lesioned by the administration of MPTP at a concentration of 2.0 mg/kg (free-base) via subcutaneous injection to achieve a parkinsonian state (see FIGS. 151-156). A post-MPTP lesioning behavioral assessment was carried out 2 to 4 weeks after the last MPTP-Iesioning. Locomotor activity was monitored by IRAM in 60-minute sessions for 3 to 5 days. Clinical behavior (CAS) was assessed by one to three individuals rating over a period of 3 to 5 days.
Animals were tested for response to L-Dopa and the efficacy of drug nepicastat. Testing was carried out 4 to 12 weeks after the last MPTP dose. Twenty-tour squirrel monkeys were randomly assigned to 4 groups; Group A (6 animals) received placebo (water) treatment; Group B (5 animals) received drug nepicastat at 1 mg/kg/day (0.5 mg/kg twice daily); Group C (6 animals) received 4 mg/kg/day (2 mg/kg twice daily); and Group D (6 animals) received 10 mg/kg/day (5 mg/kg twice daily).
L-Dopa was administered at a concentration of either 2.5, 5, or 7.5 mg/kg by oral gavage twice daily (at 10 am and 2 pm) for 7 consecutive days. Behavior was determined by IRAM and CRS. Clinical rating was carried out 60 to 90 minutes following the 10 am morning dose on the last 4 days of treatment. Raters (one to three individuals) were blinded to the different treatment groups. IRAM assessment were preformed for 90 minutes immediately following drug administration at 2 pm on the last 2 to 5 days of drug treatment. There was a minimum 2 day washout period between each treatment dose.
Drug nepicastat or water (as placebo) was administered for 12 days following a minimum 2 day washout after L-Dopa dosing. Drug was administered twice daily at 10 am and 2 pm by oral gavage. Behavior was rated by IRAM and CRS. The CRS was conducted in the morning, 60 to 90 minutes after the 10 am dose of nepicastat on the last 5 days of drug treatment. Raters (one to three individuals) were blinded to the different treatment groups. IRAM assessments were preformed for 90 minutes immediately following drug administration at 2 pm on the last 5 days of drug treatment.
Eight parkinsonian features were rated in each animal and the total score was derived from the sum of these eight features. […]

The test system of the next data set is serum T3 and T4 levels. Put plainly: Thyroid function (serum T3, T4) in iodine-deficient rats, 10 days. The data set is classed as in vivo, Sprague-Dawley rats. The note with it: for effect on serum T3 and T4 levels: nepicastat 2.0 and 6.2 mg/kg b.i.d., methimazole 1 mg/kg b.i.d., po, 10 days. The procedure: Male Sprague-Dawley rats, weighing 180-200 grams, were fed an iodine deficient diet (Purina, 5891C, Lot 1478, 0.066±0.042 mg iodine/kg sample) ad libitum 14 days prior to treatment. Animals were weighed and randomly assigned to one of the following treatment groups (n=12 per group): Nepicastat at 2.0 mg/kg, Nepicastat at 6.2 mg/kg, R, Methimazole at 1 mg/kg, or vehicle at 1 ml/kg. Each group of rats was dosed orally in the evening and the following morning, approximately 12 hours apart, for 10 consecutive days.
Orbital blood samples were taken at day—3, 0, 3, 7, and 9 (day 0 was the first day of dosing). Serum samples were analyzed for T3 and T4 levels using a radioimmunoassay.
To statistically evaluate changes in T3 and T4 levels, a change from baseline was calculated from the day-3 time point. A non-parametric two-way within subject analysis of variance (ANOVA) was conducted. Also a one-way ANOVA was performed to detect if a significant difference from control occurred. Pairwise analyses between controls and each treatment group were carried out using Fisher's LSD strategy to control the experiment-wise error rate. For statistical analysis of catecholamine levels, a one-way ANOVA with factor DOSE was performed. Pairwise analyses between treated and controls at each dose were carried out using Fisher's LSD strategy to control the experiment-wise error rate.

Data set [2] is described as follows: Plasma levels of nepicastat and N-acetyl metabolite in dogs, 2 mg/kg b.i.d. The data set is classed as in vivo, beagle dogs. The note with it: after nepicastat 2 mg/kg bid, any of the days. The procedure:
Male Beagle dogs (Marshall farms, North Rose, N.Y.) weighing between 9-16 kg were used in the study. The animals were allowed water ad libitum and given food once daily at ˜10.00 AM. Animals were randomly assigned to one of the following treatment groups (n=8/group): placebo (empty capsule), or nepicastat at 2 mg/kg b.i.d (4 mg/kg/day). Each animal received 2 doses daily, morning and afternoon (8-10 hours apart). Daily blood samples (10 ml) were drawn 6 h after the AM dose for measurement of plasma levels of nepicastat and catecholamines. The blood was collected in tubes containing heparin and glutathione and centrifuged at −4° C. within 1 h of collection. The plasma was separated and divided into two samples, one for the measurement of plasma catecholamines and the other for analysis of nepicastat.
Plasma NE, DA and EPI were anaylysed by HPLC using electrochemical detection. Plasma concentration of nepicastat was determined by HPLC using electrochemical detection.

Data set [3] concerns mean arterial pressure and heart rate. As to the kind of experiment: Heart rate and mean arterial pressure in restrained SHR with SCH-23390 pretreatment. The data set is classed as in vivo, spontaneous hypertensive rats. The conditions noted are these: 200 μg/kg iv, 15 min post-iv period. From the text:
Male, spontaneous hypertensive rats (280-345 g; Charles River Labs, Kingston, N.Y.) were fasted overnight then anesthetized with ether. A femoral artery and femoral vein were cannulated with PE50 tubing for recording of blood pressure and administration of compounds, respectively. Animals were then placed in MAYO restrainers and their feet loosely taped to the restrainer. Heparinized saline (50 units sodium heparin/ml) was used to maintain patency of each cannula throughout the experiment. The following parameters were continuously recorded using Modular Instruments MI^2 BioReport™ software installed on an IBM personal computer: mean arterial pressure (MAP), heart rate (HR), and the change from baseline for each parameter at specified time points in the experiment.
All compounds were dissolved on the day of use. nepicastat was dissolved in deionized water (vehicle) to a free base concentration of 1 mg/ml. Oral dosing volume for nepicastat or vehicle was 10 ml/kg. SCH-23390 was dissolved in saline (vehicle) to a free base concentration of 0.2 mg/ml. […] or saline were administered intravenously as a bolus in a volume of 1.0 ml/kg followed by 0.2 ml flush of isotonic saline.
Following surgical preparation, each animal was allowed a minimum one hour recovery period. Animals were randomly assigned to four treatment groups: vehicle (iv)/vehicle (po); vehicle (iv)/nepicastat (po); SCH-23390 (iv)/vehicle (po); or SCH-23390 (iv)/nepicastat (po). Once animals were stabilized (minimum one hour), baseline blood pressure and heart rate was determined by taking an average of each parameter over a 15 min period of time. Once baseline blood pressure and heart rate were established, animals were dosed intravenously with either SCH-23390 (200 μg/kg) or vehicle (saline, 1 ml/kg). Fifteen minutes later, animals were orally dosed with either nepicastat (10 mg/kg) or vehicle (deionized water, 10 ml/kg).
Recorded parameters were measured 15 min prior to intravenous dosing to establish baseline blood pressure and heart rate. Recorded parameters were then measured at 5, 10, and 15 min following intravenous administration of SCH-23390 or vehicle. Following oral administration of nepicastat or vehicle, recorded parameters were measured at 15, 30, 60, 90, 120, 150, 180, 210, and 240 min.
At the end of the experiment, each animal was anesthetized with halothane and euthanized via decapitation. The cortex, left ventricle (apex), and mesenteric artery were dissected out, weighed, and fixed in 0.4 M perchloric acid. […] Blood pressure and heart rate were analyzed separately. The change from baseline for blood pressure and heart rate were analyzed by an analysis of variance (ANOVA) with effects for treatment, time, and their interaction. […]

The next data set concerns blood pressure. Put plainly: Radio-telemetry blood pressure in SHR, up to 30 days. The data set is classed as in vivo. The note with it: 1 mg/kg, p.o.

Entries after “also recorded” stand apart in the source; their conditions may differ.

In the case of `NNc1nncc2ccccc12` [Hydralazine, reference compound], the “time in which hypotensive effect subsided” value in data set [1] amounted to 10 h. Moreover, the “maximal decrease in MBP” value in data set [1] (within 1 hr after dosing on day 1) is −24 mmHg.

For `N[C@@H](Cc1ccc(O)c(O)c1)C(=O)O` [L-Dopa, reference compound], the “CRS / parkinsonian symptoms compared to post-MPTP (pre-treatment) state” value in the data set on parkinsonian symptoms (L-Dopa 2.5 mg/kg) is on record as “No groups of animals demonstrated significant improvement; also recorded: no significant effect”; in the data set on parkinsonian symptoms (L-Dopa 5 and 7.5 mg/kg, except Group B at 5 and Group C at 7.5 mg/kg), “significant improvement; also recorded: significant effect”.

In the case of `Cn1cc[nH]c1=S` [Methimazole, methimazole], the “reduction in serum levels of T3” value is given as 31% in the data set on serum T3 and T4 levels (day 3, 4 h post-dose); 42% in the data set with serum T3 and T4 levels (day 7, 4 h post-dose); 44% in the data set on serum T3 and T4 levels (day 9, 4 h post-dose). The “reduction in serum levels of T4” value with serum T3 and T4 levels (day 3, 4 h post-dose) turned out to be 46%; with serum T3 and T4 levels (day 7, 4 h post-dose), 58%. Moreover, the “T4 levels vs vehicle” value with serum T3 and T4 levels (day nine) is “only marginally (p<0.10) lower”. Besides, the “effect on serum T3 and T4 levels” value in the data set with serum T3 and T4 levels was “significantly (p<0.05) lowered T3 levels on all treatment days”; in the data set on serum T3 and T4 levels (listed as methimazole), “significantly reduced”.

`CC(=O)NCc1c[nH]c(=S)n1[C@H]1CCc2c(F)cc(F)cc2C1` [N-acetyl metabolite of nepicastat]: the “plasma levels of the N-acetyl metabolite” value in data set [2] is reported as “No significant levels”.

For `CN1CCc2cc(Cl)c(O)cc2[C@@H](c2ccccc2)C1` [SCH-23390, reference compound], the “decrease in mean arterial pressure” value in data set [3] is 5±1 mmHg.

Turning to `CCOC(=O)[C@H](CCc1ccccc1)N[C@@H](C)C(=O)N1CCC[C@H]1C(=O)O` [enalapril, reference compound], in the data set on blood pressure, the “effect on blood pressure, enalapril alone” value is given as “failed to lower blood pressure” and the “reduction in left ventricular mass, enalapril alone” value was “did not occur”.

Values taken from US20090054403A1, “Treatment of Post-Traumatic Stress Disorder” (priority 2007, published 2009).
